From patent US20190231785A1, “PHOSPHODIESTERASE INHIBITOR TREATMENT” (Cyrano Therapeutics, Inc., priority 2012, published 2019)
Marks after values point to notes of the source that are not given here.

Test system: patients with hyposmia
Experiment: Olfactometry (DT, RT, ME, H; forced-choice, three-stimuli, stepwise-staircase, four odors), open trial of oral theophylline
Type: in vivo, human
Description: Patients initially reported their sensory dysfunction as either loss of taste (e.g., flavor) and/or smell function. This subjective response was documented by objective psychophysical measurements of olfactory function administered to each patient by use of a forced-choice, three-stimuli, stepwise-staircase technique in a fixed, controlled design (1, 53). Efficacy of this technique and results of testing were previously documented in a double-blind clinical trial (53). Four odors were used; they were pyridine (dead-fish odor), nitrobenzene (bitter-almond odor), thiophene (petroleum-like odor) and amyl acetate (banana-oil odor). Detection thresholds (DT), recognition thresholds (RT) and magnitude estimation (ME) values for each odor were determined as previously described (1, 53). Thresholds were converted into bottle units (BU) as previously described (53) and results reported as M±SEM of correct responses for each odor in each treatment group; ME was reported in % and results calculated to obtain M±SEM for each treatment group for all correct responses using data for the four highest odor concentrations presented (from 10^−2M—an absolute odor concentration).
In addition, each patient graded the hedonic (H) value of each odor presented for these same odor concentrations (from 10^−2M—an absolute odor concentration using a −100-0-+100 scale). […] Results were obtained by calculating the arithmetical sum of each correct recognition response for each odor with respect to its pleasantness, unpleasantness or neutrality. Arithmetic M±SEM were obtained for each treatment group for each odor presented.
After determination of hyposmia, patients were treated in an open label, fixed design, controlled open trial. Patients were given an oral extended release theophylline in divided daily doses taken in the middle of breakfast and lunch. All patients were initially given 200 mg of theophylline; changes in this dose were made based upon subjective responses to therapy. If at a subsequent return visit, patients reported ≥5% subjective improvement in overall smell function, they continued on this same dose of theophylline and were reevaluated after four to six months of continued treatment. Results from any subsequent return from these improved patients were not included in any subsequent data report. All subsequent comparisons between treated and untreated patients were made only between those patients continuing in the study compared to their own measurements obtained in the untreated state. If patients reported <5% subjective improvement, their theophylline dose was increased by 200 mg daily and they were scheduled for retesting at the study site after two to four months at this new dosage. For patients that reported <5% improvement, this sequence continued until patients reached 800 mg of theophylline, at which time the study was considered completed.
Patients returned for reevaluation after two to four months of treatment. Measurements of blood serum theophylline were measured by a fluorescence polarization assay (Abbott, Chicago, Ill.). At this time, subjective changes in smell function were measured independently (compared to patient's memory of previous normal smell function monitored by use of the patients' daily measurements) using the scale from −100-0-+100 previously described (vs). After independently recording their subjective responses, smell function was measured for all four odors with DT, RT, ME and H determined without recourse to prior measurements.
Since data for all measurements from each patient group (local or distant) on each dose level were combined mean and SEM for each measurement (DT, RT, ME, H) of smell function for each treatment group were calculated on this basis. Differences in measurements between before treatment and each treatment level were calculated and significance of differences estimated using Student t tests (values p<0.05 considered significant). […]

[1] = Type II hyposmia, oral 800 mg, after treatment (16 patients)
[2] = Type III hyposmia, oral 200 mg, after treatment (4 patients)
[3] = Type III hyposmia, oral 400 mg, after treatment (2 patients)
[4] = Type III hyposmia, oral 600 mg, after treatment (4 patients)
[5] = oral 800 mg, vs before treatment

## Cn1c(=O)c2[nH]cnc2n(C)c1=O [theophylline]
Type II hyposmia, oral 600 mg, after treatment (105 patients)
  recognition threshold (RT), thiophene: 8.1 ± 0.3^a BU
[1]
  detection threshold (DT), amyl acetate: 4.6 ± 0.7^a BU
  detection threshold (DT), nitrobenzene: 4.6 ± 0.9^a BU
  detection threshold (DT), pyridine: 4.7 ± 0.7^a BU
  detection threshold (DT), thiophene: 4.9 ± 0.7^a BU
  hedonic value (H), amyl acetate: 13 ± 9%
  hedonic value (H), nitrobenzene: 22 ± 11%
  hedonic value (H), pyridine: −31 ± 9%
  hedonic value (H), thiophene: −24 ± 8%
  magnitude estimation (ME), amyl acetate: 38 ± 6^e %
  magnitude estimation (ME), nitrobenzene: 42 ± 8^b %
  magnitude estimation (ME), pyridine: 43 ± 5^e %
  magnitude estimation (ME), thiophene: 33 ± 6%
  recognition threshold (RT), amyl acetate: 7.1 ± 0.6^a BU
  recognition threshold (RT), nitrobenzene: 5.1 ± 0.9^a BU
  recognition threshold (RT), pyridine: 7.1 ± 0.7^a BU
  recognition threshold (RT), thiophene: 8.0 ± 1.0 BU
[2]
  detection threshold (DT), amyl acetate: 2.8 ± 0.5 BU
  detection threshold (DT), nitrobenzene: 3.8 ± 0.7 BU
  detection threshold (DT), pyridine: 4.0 ± 0.6 BU
  detection threshold (DT), thiophene: 3.2 ± 0.8 BU
  hedonic value (H), amyl acetate: 14 ± 13%
  hedonic value (H), nitrobenzene: 13 ± 12%
  hedonic value (H), pyridine: −40 ± 13%
  hedonic value (H), thiophene: −40 ± 18%
  magnitude estimation (ME), amyl acetate: 32 ± 10%
  magnitude estimation (ME), nitrobenzene: 33 ± 8%
  magnitude estimation (ME), pyridine: 45 ± 11%
  magnitude estimation (ME), thiophene: 47 ± 15%
  recognition threshold (RT), amyl acetate: 5.2 ± 1.6 BU
  recognition threshold (RT), nitrobenzene: 5.0 ± 0.6 BU
  recognition threshold (RT), pyridine: 5.2 ± 0.5 BU
  recognition threshold (RT), thiophene: 3.8 ± 0.6 BU
[3]
  detection threshold (DT), amyl acetate: 2 BU
  detection threshold (DT), nitrobenzene: 2.5 BU
  detection threshold (DT), pyridine: 5.0 BU
  detection threshold (DT), thiophene: 1 BU
  hedonic value (H), amyl acetate: 75%
  hedonic value (H), nitrobenzene: −62%
  hedonic value (H), pyridine: −40%
  hedonic value (H), thiophene: −99%
  magnitude estimation (ME), amyl acetate: 75%
  magnitude estimation (ME), nitrobenzene: 79%
  magnitude estimation (ME), pyridine: 45%
  magnitude estimation (ME), thiophene: 99%
  recognition threshold (RT), amyl acetate: 3 BU
  recognition threshold (RT), nitrobenzene: 4.0 BU
  recognition threshold (RT), pyridine: 5.0 BU
  recognition threshold (RT), thiophene: 1 BU
[4]
  detection threshold (DT), amyl acetate: 2.5 ± 1.0 BU
  detection threshold (DT), nitrobenzene: 3.8 ± 0.9 BU
  detection threshold (DT), pyridine: 3.8 ± 0.9 BU
  detection threshold (DT), thiophene: 2.0 ± 1.0 BU
  hedonic value (H), amyl acetate: 28 ± 19%
  hedonic value (H), nitrobenzene: 12 ± 16%
  hedonic value (H), pyridine: −26 ± 22%
  hedonic value (H), thiophene: −35 ± 24%
  magnitude estimation (ME), amyl acetate: 31 ± 17%
  magnitude estimation (ME), nitrobenzene: 33 ± 13%
  magnitude estimation (ME), pyridine: 41 ± 15%
  magnitude estimation (ME), thiophene: 42 ± 20%
  recognition threshold (RT), amyl acetate: 4.8 ± 1.7 BU
  recognition threshold (RT), nitrobenzene: 4.5 ± 1.3 BU
  recognition threshold (RT), pyridine: 5.5 ± 0.9 BU
  recognition threshold (RT), thiophene: 3.8 ± 0.9 BU
Oral 200 mg (Table IV)
  decrease in H, pyridine: 2%
  decrease in H, thiophene: 2%
  increase in H, amyl acetate (more pleasant): 2%
  increase in H, nitrobenzene (more pleasant): 2%
  increase in ME, amyl acetate: 5%
  increase in ME, nitrobenzene: 5%
  increase in ME, pyridine: 6%
  increase in ME, thiophene: 5%
  total mean increase in ME, all odors: 5.1%
Oral 200 mg, vs before treatment, not statistically significant
  increase of H value, amyl acetate (more pleasant): 50%
Oral 400 mg (Table V)
  change in H, amyl acetate (decreased, became more pleasant): 1%
  change in H, nitrobenzene (decreased, became more pleasant): 4%
  change in H, pyridine (increases in H values): 9%
  change in H, thiophene (increases in H values): 7%
  increase in ME, amyl acetate: 8%
  increase in ME, nitrobenzene: 11%
  increase in ME, pyridine: 12%
  increase in ME, thiophene: 12%
Oral 400 mg, vs before treatment
  decrease of H value, thiophene (more unpleasant): 40%
Oral 400 mg, vs before treatment, not statistically significant
  increase of H value, nitrobenzene (more pleasant): 50%
Oral 600 mg (Table VI)
  total mean increase in ME, all odors: 6.9%
[5]
  decrease of H value, pyridine (more unpleasant): 55%
  decrease of H value, thiophene (more unpleasant): 37%
  increase of H value, amyl acetate (more pleasant): about 50%
  increase of H value, nitrobenzene (more pleasant): about 50%
